From patent publication US12606541B2, “PPARg modulators and methods of use” (Eisai R&D Management Co., Ltd., priority 2020, dated 2026) come the findings set out here.

For the experiment, the target named is T1, His6-TEV-PPARγ-(234-505) (Homo sapiens, UniProt P37231).
T1 construct: The His6-TEV-PPARγ-(234-505) protein for assay was expressed and purified; TEV cleavage site (N); made in house
T1 sequence (P37231 234-505): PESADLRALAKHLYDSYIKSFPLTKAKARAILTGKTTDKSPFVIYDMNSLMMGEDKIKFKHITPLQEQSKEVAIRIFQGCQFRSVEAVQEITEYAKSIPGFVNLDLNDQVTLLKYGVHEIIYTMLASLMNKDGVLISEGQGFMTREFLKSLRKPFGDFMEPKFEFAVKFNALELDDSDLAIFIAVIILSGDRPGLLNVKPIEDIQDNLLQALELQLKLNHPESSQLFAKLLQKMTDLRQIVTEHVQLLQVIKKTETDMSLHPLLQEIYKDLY
The experiment can be described thus: TR-FRET Assay to Measure Co-R Peptide Recruitment to PPARγ. The format is biochemical. The settings on record: Co-R peptide recruitment to PPARγ; read-out: TR-FRET AC50. The procedure, abridged: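 Corepressor recruitment is measured by adding terbium-labeled anti-His antibody and FITC SMRT-ID2 peptide, at 5 and 200 nM final, after a 20-minute room-temperature protein–compound incubation. After one further hour, signal is converted to percent response between DMSO and 500 nM T0070907 wells.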
In general terms: In TR-FRET formats the signal depends on donor and acceptor labels being close together.
In the case of `COc1c(C)cccc1CNC(=O)C1CCN(C(=O)c2cc(-c3ccncc3)[nH]n2)CC1` [N-[(2-methoxy-3-methylphenyl)methyl]-1-[5-(pyridin-4-yl)-1H-pyrazole-3-carbonyl]piperidine-4-carboxamide], the AC50 was > 1000 nM.
For the compound `COc1cc(-c2cc(C(=O)N3CCC(C(=O)NC4CCS(=O)(=O)c5ccccc54)CC3)n[nH]2)c(Cl)cn1` (stereo not drawn) [1-[5-(5-chloro-2-methoxypyridin-4-yl)-1H-pyrazole-3-carbonyl]-N-(1,1-dioxo-3,4-dihydro-2H-1λ^6-benzothiopyran-4-yl)piperidine-4-carboxamide], the half-maximal activity concentration (AC50) is > 1000 nM.
With `Cc1cc(-c2cc(C(=O)N3CCC(C(=O)N[C@H]4CC[C@@](O)(C(F)(F)F)CC4)CC34CC4)n[nH]2)c([C@H](C)O)cn1` (single isomer, unassigned), the AC50 was > 1000 nM.
The same measure for `COc1cc(-c2cc(C(=O)N3CCC(C(=O)NCC4CCCOC4)CC3)n[nH]2)c(Cl)cn1` (stereo not drawn) [1-[5-(5-chloro-2-methoxypyridin-4-yl)-1H-pyrazole-3-carbonyl]-N-[(oxan-3-yl)methyl]piperidine-4-carboxamide]: > 1000 nM; for `COc1ccc(OC)c(CNC(=O)C2CCN(C(=O)c3cc(-c4ccncc4)[nH]n3)CC2)c1` [N-[(2,5-dimethoxyphenyl)methyl]-1-[5-(pyridin-4-yl)-1H-pyrazole-3-carbonyl]piperidine-4-carboxamide]: > 1000 nM; for `O=C(Nc1cccc(C(F)(F)F)c1)C1CCN(C(=O)c2cc(-c3ccncc3)[nH]n2)CC1` [1-[5-(pyridin-4-yl)-1H-pyrazole-3-carbonyl]-N-[3-(trifluoromethyl)phenyl]piperidine-4-carboxamide]: > 1000 nM.
The same measure for `COc1cc(-c2cc(C(=O)N3CCC(CO)(C(=O)NCc4cccc(Cl)c4)CC3)n[nH]2)c(Cl)cn1` [1-[5-(5-chloro-2-methoxypyridin-4-yl)-1H-pyrazole-3-carbonyl]-N-[(3-chlorophenyl)methyl]-4-(hydroxymethyl)piperidine-4-carboxamide]: > 1000 nM; for `O=C(NC1CCC(O)CC1)C1CCN(C(=O)c2cc(-c3ccncc3)[nH]n2)CC1` (stereo not drawn): > 1000 nM.
For `O=C(NCc1ccc(Cl)c(Cl)c1)C1CCN(C(=O)c2cc(-c3cccnc3)[nH]n2)CC1` [N-[(3,4-dichlorophenyl)methyl]-1-[5-(pyridin-3-yl)-1H-pyrazole-3-carbonyl]piperidine-4-carboxamide] the value was > 1000 nM; for `O=C(Nc1ccc(F)cn1)C1CCN(C(=O)c2cc(-c3ccncc3)[nH]n2)CC1` [N-(5-fluoropyridin-2-yl)-1-[5-(pyridin-4-yl)-1H-pyrazole-3-carbonyl]piperidine-4-carboxamide], > 1000 nM.
For `COc1cc(-c2cc(C(=O)N3CCC(C(=O)NCC4OCCCO4)CC3)n[nH]2)c(Cl)cn1` [1-[5-(5-chloro-2-methoxypyridin-4-yl)-1H-pyrazole-3-carbonyl]-N-[(1,3-dioxan-2-yl)methyl]piperidine-4-carboxamide], the AC50 is > 1000 nM.
For `COc1cc(-c2cc(C(=O)N3CCC(C(=O)NC(C)c4cnccn4)CC3)n[nH]2)c(Cl)cn1` (stereo not drawn) [1-[5-(5-chloro-2-methoxypyridin-4-yl)-1H-pyrazole-3-carbonyl]-N-[1-(pyrazin-2-yl)ethyl]piperidine-4-carboxamide] the value was > 1000 nM; for `O=C(O)COc1cc(NC(=O)C2CCN(C(=O)c3cc(-c4ccncc4)[nH]n3)CC2)ccc1Cl` [2-(2-chloro-5-{1-[5-(pyridin-4-yl)-1H-pyrazole-3-carbonyl]piperidine-4-amido}phenoxy)acetic acid], > 1000 nM; for `COc1nccc(-c2cc(C(=O)N3CCC(C(=O)NC4CCC(C)CC4)CC3)n[nH]2)c1C` (stereo not drawn) [1-[5-(2-methoxy-3-methylpyridin-4-yl)-1H-pyrazole-3-carbonyl]-N-(4-methylcyclohexyl)piperidine-4-carboxamide], > 1000 nM.
For `COc1cc(-c2cc(C(=O)N3CCC(C(=O)NC(C)C4CCC4)CC3)n[nH]2)c(F)cn1` (stereo not drawn) [N-(1-cyclobutylethyl)-1-[5-(5-fluoro-2-methoxypyridin-4-yl)-1H-pyrazole-3-carbonyl]piperidine-4-carboxamide] the value was > 1000 nM; for `Cc1nc(CNC(=O)C2CCN(C(=O)c3cc(-c4ccncc4)[nH]n3)CC2)sc1C` [N-[(4,5-dimethyl-1,3-thiazol-2-yl)methyl]-1-[5-(pyridin-4-yl)-1H-pyrazole-3-carbonyl]piperidine-4-carboxamide], > 1000 nM.
For the compound `COc1cc(-c2cc(C(=O)N3CCC(C(=O)Nc4cnnc5ccccc45)CC3)n[nH]2)c(Cl)cn1` [1-[5-(5-chloro-2-methoxypyridin-4-yl)-1H-pyrazole-3-carbonyl]-N-(cinnolin-4-yl)piperidine-4-carboxamide], the AC50 is > 1000 nM.
For the compound `COc1cc(-c2cc(C(=O)N3CCC(C(=O)NC45CC(C4)C5)CC3)n[nH]2)c(Cl)cn1` [N-{bicyclo[1.1.1]pentan-1-yl}-1-[5-(5-chloro-2-methoxypyridin-4-yl)-1H-pyrazole-3-carbonyl]piperidine-4-carboxamide], the half-maximal activity concentration (AC50) was > 1000 nM.
Regarding `CCOc1cc(-c2cc(C(=O)N3CCC(C(=O)N[C@H]4CC[C@@](OC)(C(F)(F)F)CC4)CC34CC4)n[nH]2)c(F)cn1` (single isomer, unassigned), the AC50 is > 1000 nM.
For `O=C(NCc1ccc2c(c1)OCO2)C1CCCN(C(=O)c2cc(-c3ccncc3)[nH]n2)C1` (stereo not drawn) [N-[(2H-1,3-benzodioxol-5-yl)methyl]-1-[5-(pyridin-4-yl)-1H-pyrazole-3-carbonyl]piperidine-3-carboxamide] the value was > 1000 nM; for `O=C(c1cc(-c2ccncc2)[nH]n1)N1CCC(C(=O)N2CCOCC2)CC1` [4-{1-[5-(pyridin-4-yl)-1H-pyrazole-3-carbonyl]piperidine-4-carbonyl}morpholine], > 1000 nM.
The same measure for `COc1cc(-c2cc(C(=O)N3CCC(C(=O)NCc4cc(F)cc(C(F)(F)F)c4)CC3)n[nH]2)c(Cl)cn1` [1-[5-(5-chloro-2-methoxypyridin-4-yl)-1H-pyrazole-3-carbonyl]-N-{[3-fluoro-5-(trifluoromethyl)phenyl]methyl}piperidine-4-carboxamide]: > 1000 nM; for `CC(C)CCNC(=O)C1CCN(C(=O)c2cc(-c3ccncc3)[nH]n2)CC1` [N-(3-methylbutyl)-1-[5-(pyridin-4-yl)-1H-pyrazole-3-carbonyl]piperidine-4-carboxamide]: > 1000 nM; for `COc1cc(-c2cc(C(=O)N3CCC(C(=O)NC4CCC(C)(C)CC4)CC3)n[nH]2)ccn1` [N-(4,4-dimethylcyclohexyl)-1-[5-(2-methoxypyridin-4-yl)-1H-pyrazole-3-carbonyl]piperidine-4-carboxamide]: > 1000 nM.
The same measure for `COc1cc(-c2cc(C(=O)N3CCC[C@H](C(=O)NCc4cccc(Cl)c4)C3)n[nH]2)c(F)cn1` [(3S)—N-[(3-chlorophenyl)methyl]-1-[5-(5-fluoro-2-methoxypyridin-4-yl)-1H-pyrazole-3-carbonyl]piperidine-3-carboxamide]: > 1000 nM; for `COc1cc(-c2cc(C(=O)N3CCC4(C(=O)NCc5cccc(Cl)c5)CC34)n[nH]2)c(Cl)cn1` (stereo not drawn) [2-[5-(5-chloro-2-methoxypyridin-4-yl)-1H-pyrazole-3-carbonyl]-N-[(3-chlorophenyl)methyl]-2-azabicyclo[3.1.0]hexane-5-carboxamide]: > 1000 nM; for `C[C@H](CNC(=O)C1CCN(C(=O)c2cc(-c3ccncc3)[nH]n2)CC1)c1ccccc1` [N-[(2S)-2-phenylpropyl]-1-[5-(pyridin-4-yl)-1H-pyrazole-3-carbonyl]piperidine-4-carboxamide]: > 1000 nM.
Consider `COc1cc(-c2cc(C(=O)N3CCC(C(=O)Nc4cnc5ccccn45)CC3)n[nH]2)c(Cl)cn1` [1-[5-(5-chloro-2-methoxypyridin-4-yl)-1H-pyrazole-3-carbonyl]-N-{imidazo[1,2-a]pyridin-3-yl}piperidine-4-carboxamide], for which the AC50 was > 1000 nM.
The same measure for `COc1cc(-c2cc(C(=O)N3CC[C@H](C(=O)NCC45CC(CN4CC(C)(C)F)C5)CC34CC4)n[nH]2)c(F)cn1`: > 1000 nM.
The same measure for `COc1cc(-c2cc(C(=O)N3CCC(C(=O)NC4CCC(C)(OC)CC4)CC3)n[nH]2)c(Cl)cn1` (stereo not drawn) [1-[5-(5-chloro-2-methoxypyridin-4-yl)-1H-pyrazole-3-carbonyl]-N-(4-methoxy-4-methylcyclohexyl)piperidine-4-carboxamide]: > 1000 nM; for `COc1cc(-c2cc(C(=O)N3CCC(C(=O)NCc4n[nH]c(=O)c5ccccc45)CC3)n[nH]2)c(Cl)cn1` [1-[5-(5-chloro-2-methoxypyridin-4-yl)-1H-pyrazole-3-carbonyl]-N-[(4-oxo-3,4-dihydrophthalazin-1-yl)methyl]piperidine-4-carboxamide]: > 1000 nM; for `COc1cc(-c2cc(C(=O)N3CCC(C(=O)NCc4cccc(=O)[nH]4)CC3)n[nH]2)c(Cl)cn1` [1-[5-(5-chloro-2-methoxypyridin-4-yl)-1H-pyrazole-3-carbonyl]-N-[(6-oxo-1,6-dihydropyridin-2-yl)methyl]piperidine-4-carboxamide]: > 1000 nM.
For `COc1cc(-c2cc(C(=O)N3CCC(C(=O)NCC4CCCO4)CC3)n[nH]2)c(Cl)cn1` (stereo not drawn) [1-[5-(5-chloro-2-methoxypyridin-4-yl)-1H-pyrazole-3-carbonyl]-N-[(oxolan-2-yl)methyl]piperidine-4-carboxamide] the value was > 1000 nM.

For orientation: AC50 means the midpoint of the concentration-response curve, whichever way the signal moves.
